# Patent US12060333B2 (Hoffmann-La Roche Inc., priority 2021, dated 2024)
# Like-named read-outs stand apart in the source and are kept apart here.
# Biological target: SARS-CoV-2 3CLpro (Severe acute respiratory syndrome coronavirus 2, UniProt P0DTD1)
# Assay: biochemical
# [1] = read-out: IC50 (μM), SARS-CoV-2 3CLPro assay
# [2] = IC50 (μM), SARS-CoV-2 3CLPro assay
Compound,IC50 [1] [µM],IC50 [2] [µM]
"N-[(1S)-1-[[(3-amino-3-oxo-propyl)-[(2R)-2-chloro-2-fluoro-acetyl]amino]carbamoyl]-3-methyl-butyl]-1H-pyrrolo[2,3-c]pyridine-2-carboxamide and N-[(1S)-1-[[(3-amino-3-oxo-propyl)-[(2S)-2-chloro-2-fluoro-acetyl]amino]carbamoyl]-3-methyl-butyl]-1H-pyrrolo[2,3-c]pyridine-2-carboxamide [Example 88]",0.013,
"COc1cccc2[nH]c(C(=O)N[C@@H](CC3CCCCC3)C(=O)NN(CCC(N)=O)C(=O)CF)cc12 [Example 37, N-[(1S)-2-[2-(3-Amino-3-axo-propyl)-2-(2-fluoroacetyl)hydrazino]-1-(cyclohexylmethyl)-2-axo-ethyl]-4-methoxy-1H-indole-2-carboxamide]",0.038,
"Cc1nc(C(=O)N[C@@H](CC(C)C)C(=O)NN(CCC(N)=O)C(=O)CCl)co1 [Example 45, N-[(1S)-1-[[(3-Amino-3-oxo-propyl)-(2-chloroacetyl)amino]carbamoyl]-3-methyl-butyl]-2-methyl-oxazole-4-carboxamide]",0.046,
"COc1cc2cc(C(=O)N[C@@H](CC(C)C)C(=O)NN(CCC(N)=O)C(=O)C(F)Cl)[nH]c2cn1 (mixture of isomers) [Example 89, 5-methoxy-N-[rac-(1S)-1-[[(3-amino-3-axo-propyl)-(2-chloro-2-fluoro-acetyl)amino]carbamoyl]-3-methyl-butyl]-1H-pyrrolo[2,3-c]pyridine-2-carboxamide]",,0.019
"CC(C)C[C@H](NC(=O)c1nc2cc(Cl)ccc2[nH]1)C(=O)NN(CCC(N)=O)C(=O)[C@@H](F)Cl (racemic) [Example 60-A, 5-chloro-N-[rac-(1S)-1-[[(3-amino-3-axo-propyl)-[rac-(2S)-2-chloro-2-fluoro-acetyl]amino]carbamoyl]-3-methyl-butyl]-1H-benzimidazole-2-carboxamide]",,0.008
"CC(C)C[C@H](NC(=O)c1nc2cc(Cl)ccc2[nH]1)C(=O)NN(CCC(N)=O)C(=O)[C@H](F)Cl (racemic) [Example 60-B, 5-chloro-N-[rac-(1S)-1-[[(3-amino-3-oxo-propyl)-[rac-(2R)-2-chloro-2-fluoro-acetyl]amino]carbamoyl]-3-methyl-butyl]-1H-benzimidazole-2-carboxamide]",,0.052
"Cc1oncc1C(=O)N[C@@H](CC(C)C)C(=O)NN(CCC(N)=O)C(=O)CCl [Example 46, N-[(1S)-1-[[(3-Amino-3-oxo-propyl)-(2-chloroacetyl)amino]carbamoyl]-3-methyl-butyl]-5-methyl-isoxazole-4-carboxamide]",0.07,
"CC(C)C[C@H](NC(=O)c1cc2ccccc2[nH]1)C(=O)NN(CC1CCNC1=O)C(=O)CCl (mixture of isomers) [Example 51, N-[(1S)-1-[[(2-Chloroacetyl)-[(2-oxo-pyrrolidin-3-yl)methyl]amino]carbamoyl]-3-methyl-butyl]-1H-indole-2-carboxamide]",,0.004
"Cc1cc(C(=O)N[C@@H](CC2CCCCC2)C(=O)NN(CCC(N)=O)C(=O)CCl)no1 [Example 48, N-[(1S)-2-[2-(3-amino-3-oxo-propyl)-2-(2-chloroacetyl)hydrazino]-1-(cyclohexylmethyl)-2-axo-ethyl]-5-methyl-isoxazole-3-carboxamide]",0.004,
"NC(=O)CCN(NC(=O)[C@H](CC1CCCCC1)NC(=O)OCc1ccccc1)C(=O)[C@@H](F)Cl (single isomer, unassigned) [Example 16-A]",,0.053
"NC(=O)CCN(NC(=O)[C@H](CC1CCCCC1)NC(=O)OCc1ccccc1)C(=O)[C@H](F)Cl (single isomer, unassigned) [Example 16-B]",,0.002
"CC(C)C[C@H](NC(=O)c1cc2c(Cl)cccc2[nH]1)C(=O)NN(CCC(N)=O)C(=O)[C@@H](F)Cl (single isomer, unassigned) [Example 53-A]",,0.014
"COc1cccc2[nH]c(C(=O)N[C@@H](CC3CCCCC3)C(=O)NN(CCC(N)=O)C(=O)CCl)cc12 [Example 32, N-[(1S)-2-[2-(3-Amino-3-axo-propyl)-2-(2-chloroacetyl)hydrazino]-1-(cyclohexylmethyl)-2-axo-ethyl]-4-methoxy-1H-indole-2-carboxamide]",,0.002
"CC(C)C[C@H](NC(=O)c1nc2ccccc2[nH]1)C(=O)NN(CCC(N)=O)C(=O)CCl [Example 42, N-[(1S)-1-[[(3-Amino-3-axo-propyl)-(2-chloroacetyl)amino]carbamoyl]-3-methyl-butyl]-1H-benzimidazole-2-carboxamide]",0.005,
"Cc1cc(C(=O)N[C@@H](CC2CC2)C(=O)NN(CCC(N)=O)C(=O)C(F)Cl)no1 (mixture of isomers) [Example 75, 5-Methyl-N-[rac-(1S)-2-[2-(3-amino-3-oxo-propyl)-2-(2-chloro-2-fluoro-acetyl)hydrazino]-1-(cyclopropylmethyl)-2-axo-ethyl]isoxazole-3-carboxamide]",,0.32
"CC(C)C[C@H](NC(=O)c1cc2cnccc2[nH]1)C(=O)NN(CCC(N)=O)C(=O)CCl [Example 52, N-[(1S)-1-[[(3-amino-3-oxo-propyl)-(2-chloroacetyl)amino]carbamoyl]-3-methyl-butyl]-1H-pyrrolo[3,2-c]pyridine-2-carboxamide]",0.014,
"NC(=O)CCN(NC(=O)[C@H](CC1CC1)NC(=O)c1cc2ccccc2[nH]1)C(=O)C(F)Cl (mixture of isomers) [Example 62, N-[rac-(1S)-2-[2-(3-amino-3-oxo-propyl)-2-(2-chloro-2-fluoro-acetyl)hydrazino]-1-(cyclopropylmethyl)-2-axo-ethyl]-1H-indole-2-carboxamide]",,0.017

Compound,IC50 [1] [µM],IC50 [2] [µM]
"NC(=O)CCN(NC(=O)[C@H](CC1CCCC1)NC(=O)OCc1ccccc1)C(=O)CCl [Example 10, Benzyl N-[(1S)-2-[2-(3-amino-3-oxo-propyl)-2-(2-chloroacetyl)hydrazino]-1-(cyclopentylmethyl)-2-axo-ethyl]carbamate]",0.006,
"NC(=O)CCN(NC(=O)[C@H](CC1CC1)NC(=O)OCc1ccccc1)C(=O)CCl [Example 11, Benzyl N-[(1S)-2-[2-(3-amino-3-oxo-propyl)-2-(2-chloroacetyl)hydrazino]-1-(cyclopropylmethyl)-2-axo-ethyl]carbamate]",0.023,
"NC(=O)CCN(NC(=O)CNC(=O)OCc1ccccc1)C(=O)CCl [Example 1, Benzyl N-[2-[2-(3-amino-3-oxo-propyl)-2-(2-chloroacetyl)hydrazino]-2-axo-ethyl]carbamate]",4.59,
"CCC(Cl)C(=O)N(CCC(N)=O)NC(=O)[C@H](CC(C)C)NC(=O)OCc1ccccc1 (stereo partly drawn) [Example 5, Benzyl N-[(1S)-1-[[(3-amino-3-oxo-propyl)-(2-chlorobutanoyl)amino]carbamoyl]-3-methyl-butyl]carbamate]",1.76,
"CC(C)C[C@H](NC(=O)c1ccon1)C(=O)NN(CCC(N)=O)C(=O)CCl [Example 43, N-[(1S)-1-[[(3-Amino-3-oxo-propyl)-(2-chloroacetyl)amino]carbamoyl]-3-methyl-butyl]isoxazole-3-carboxamide]",0.036,
"NC(=O)CCN(NC(=O)[C@H](CC1CCCCC1)NC(=O)OCc1ccccc1)C(=O)CCl [Example 8, Benzyl N-[(1S)-2-[2-(3-amino-3-oxo-propyl)-2-(2-chloroacetyl)hydrazino]-1-(cyclohexylmethyl)-2-axo-ethyl]carbamate]",0.008,
"CC(C)C[C@H](NC(=O)c1cc2cc(Cl)ccc2[nH]1)C(=O)NN(CCC(N)=O)C(=O)[C@@H](F)Cl (racemic) [Example 58-A, 5-Chloro-N-[rac-(1S)-1-[[(3-amino-3-oxo-propyl)-[rac-(2S)-2-chloro-2-fluoro-acetyl]amino]carbamoyl]-3-methyl-butyl]-1H-indole-2-carboxamide]",,0.032
"NC(=O)CCN(NC(=O)[C@H](CC1CCCCC1)NC(=O)c1cc2ccccc2[nH]1)C(=O)CF [Example 36, N-[(1S)-2-[2-(3-Amino-3-axo-propyl)-2-(2-fluoroacetyl)hydrazino]-1-(cyclohexylmethyl)-2-axo-ethyl]-1H-indole-2-carboxamide]",0.14,
"COc1cccc2[nH]c(C(=O)N[C@@H](CC3CCCCC3)C(=O)NN(CCC(N)=O)C(=O)[C@H](F)Cl)cc12 [Example 56-B, N-[(1S)-2-[2-(3-amino-3-oxo-propyl)-2-[(2S)-2-chloro-2-fluoro-acetyl]hydrazino]-1-(cyclohexylmethyl)-2-axo-ethyl]-4-methoxy-1H-indole-2-carboxamide]",0.003,
"CC(C)C[C@H](NC(=O)OCc1ccccc1)C(=O)NN(Cc1cc[nH]n1)C(=O)CCl [Example 23, Benzyl N-[(1S)-1-[[(2-chloroacetyl)-(1H-pyrazol-3-ylmethyl)amino]carbamoyl]-3-methyl-butyl]carbamate]",0.034,
"CC(C)C[C@H](NC(=O)c1cc2ccccc2[nH]1)C(=O)NN(CCC(N)=O)C(=O)[C@H](F)Cl (single isomer, unassigned) [Example 41-B]",,0.034
"CC(C)C[C@H](NC(=O)/C=C/c1ccccc1)C(=O)NN(CCC(N)=O)C(=O)[C@@H](F)Cl (single isomer, unassigned) [Example 86-B]",,0.023
"CC(C)C[C@H](NC(=O)OCc1ccccc1)C(=O)NN(CCC(N)=O)C(=O)[C@H](F)Cl (single isomer, unassigned) [Example 17-B]",,0.077
"CC(C)C[C@H](NC(=O)c1cc2ccccc2[nH]1)C(=O)NN(C[C@@H]1CCNC1=O)C(=O)CF (single isomer, unassigned) [Example 38-A]",,0.074
"CC(C)C[C@H](NC(=O)c1cc2cc(Cl)ccc2[nH]1)C(=O)NN(CCC(N)=O)C(=O)[C@H](F)Cl (racemic) [Example 58-B, 5-chloro-N-[rac-(1S)-1-[[(3-amino-3-oxo-propyl)-[rac-(2R)-2-chloro-2-fluoro-acetyl]amino]carbamoyl]-3-methyl-butyl]-1H-indole-2-carboxamide]",,0.007
"COc1cccc(NCC(=O)N[C@@H](CC(C)C)C(=O)NN(CCC(N)=O)C(=O)[C@@H](F)Cl)c1 (single isomer, unassigned) [Example 83-B]",,0.06
"CC(C)C[C@H](NC(=O)c1cc2c(Cl)cccc2[nH]1)C(=O)NN(CCC(N)=O)C(=O)[C@H](F)Cl (single isomer, unassigned) [Example 53-B]",,0.025
